Measurements: PMC7866232, “New Substituted 5-Benzylideno-2-Adamantylthiazol[3,2-b][1,2,4]Triazol-6(5H)ones as Possible Anti-Inflammatory Agents” (Molecules, 2021)
Like-named read-outs stand apart in the source and are kept apart here.

Columns and labels:
[1] = test system: carrageenin-induced mouse paw edema; assay: Carrageenin-induced mouse paw edema (CPE), in vivo anti-inflammatory activity; conditions: for inhibition in vivo at 10 µmol/kg: Mus musculus, ip, mice, 0.01 mmol/kg body weight intraperitoneally, given simultaneously with carrageenin (2%, 0.05 mL)
Experimental: The in vivo anti-inflammatory effect of the tested compounds was assessed by using the functional model of carrageenin-induced mouse paw edema and is presented as the percentage of inhibition of induction of edema at the right hind paw (Table 1).
Edema was measured by weight increase of the right hind paw in comparison to the […] left paw.
Twenty-five thiazolo[3,2-b]1,2,4-triazole derivatives, previously synthesized were evaluated for their anti-inflammatory activity, in vivo using groups of 6–10 mice of R’’’ strain.
The anti-inflammatory activity of the compounds synthesized was studied with the Carragenin-Induced Paw Edema acute inflammation test using an aqueous carrageenin solution (2%, 0,05 mL), [14] which was injected intradermally in the footpad of the right hind limb muscle (mice R’’’ groups of 6–10 animals), whereas the left end serves as a reference. In the experimental procedure both sex male mice were used, excluding pregnant. Animals were fasted during the time of the experiment. The tested compounds (0.01 mmol/kg body weight), were suspended in water, with few drops of Tween 80 and ground in a mortar before use and were given intraperitoneally simultaneously with the carrageenin injection.

human recombinant COX-2 = target: T1, human recombinant COX-2 (Homo sapiens, UniProt P35354); assay: COX inhibitor screening assay in vitro, COX-2; type: biochemical; conditions: for inhibition at 200 µM: read-out: COX-2 (%) inhibition
T1 construct: purchased Cayman Chemical Co., Ann Arbor, MI, USA
T1 sequence (P35354 18-604): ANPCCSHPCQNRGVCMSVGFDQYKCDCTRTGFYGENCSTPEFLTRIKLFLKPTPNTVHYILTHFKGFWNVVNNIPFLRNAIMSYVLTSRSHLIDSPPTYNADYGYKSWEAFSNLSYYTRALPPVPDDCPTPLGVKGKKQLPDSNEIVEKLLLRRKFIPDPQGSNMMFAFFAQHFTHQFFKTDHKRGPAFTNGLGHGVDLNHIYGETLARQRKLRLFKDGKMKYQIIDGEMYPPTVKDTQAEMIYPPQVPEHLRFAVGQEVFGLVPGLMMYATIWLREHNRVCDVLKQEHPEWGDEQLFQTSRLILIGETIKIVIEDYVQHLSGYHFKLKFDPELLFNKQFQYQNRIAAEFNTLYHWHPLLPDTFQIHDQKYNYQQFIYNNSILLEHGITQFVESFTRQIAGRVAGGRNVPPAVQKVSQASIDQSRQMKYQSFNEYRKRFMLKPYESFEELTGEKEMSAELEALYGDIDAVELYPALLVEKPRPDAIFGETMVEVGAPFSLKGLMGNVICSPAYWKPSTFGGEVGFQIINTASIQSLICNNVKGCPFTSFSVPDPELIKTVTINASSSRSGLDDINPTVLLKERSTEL
Experimental: (§1) The COX-1 and COX-2 activities of the compounds were measured using ovine COX-1 and human recombinant COX-2 enzymes included in the “COX I inhibitor Screening Assay” kit provided by Cayman (Cayman Chemical Co., Ann Arbor, MI, USA). The assay directly measures PGF2 a produced by SnCl2 reduction of COX-derived PGH2. The prostanoid production was quantified via enzyme immunoassay using a broadly specific antibody that binds to all the major prostaglandin compounds. […]

ovine COX-1 = target: T2, ovine COX-1 (Ovis aries, UniProt P05979); assay: COX inhibitor screening assay in vitro, COX-1; type: biochemical; conditions: for inhibition at 200 µM: read-out: COX-1 (%) inhibition
T2 construct: purchased Cayman Chemical Co., Ann Arbor, MI, USA
T2 sequence (P05979 25-600): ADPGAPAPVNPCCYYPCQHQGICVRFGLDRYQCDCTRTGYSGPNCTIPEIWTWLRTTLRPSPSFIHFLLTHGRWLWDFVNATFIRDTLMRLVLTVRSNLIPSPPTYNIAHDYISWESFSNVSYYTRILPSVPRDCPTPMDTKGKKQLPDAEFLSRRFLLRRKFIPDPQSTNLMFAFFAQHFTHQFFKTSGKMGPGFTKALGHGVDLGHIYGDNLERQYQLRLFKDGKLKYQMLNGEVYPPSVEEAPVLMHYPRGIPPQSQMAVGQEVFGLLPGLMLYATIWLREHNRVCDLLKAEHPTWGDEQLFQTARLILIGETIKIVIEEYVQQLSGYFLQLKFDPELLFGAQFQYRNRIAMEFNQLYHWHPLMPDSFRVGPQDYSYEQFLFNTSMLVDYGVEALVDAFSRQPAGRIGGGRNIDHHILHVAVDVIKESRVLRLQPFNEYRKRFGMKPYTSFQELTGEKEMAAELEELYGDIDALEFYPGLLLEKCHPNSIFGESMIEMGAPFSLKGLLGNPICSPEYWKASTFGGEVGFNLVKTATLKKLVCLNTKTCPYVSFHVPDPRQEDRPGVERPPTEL
Experimental: as §1

soybean lipoxygenase = target: T3, soybean lipoxygenase (Glycine max, UniProt P08170); assay: Soybean lipoxygenase inhibition in vitro; type: biochemical; conditions: 0.1 mM sodium linoleate, 234 nm
T3 sequence (P08170 1-839): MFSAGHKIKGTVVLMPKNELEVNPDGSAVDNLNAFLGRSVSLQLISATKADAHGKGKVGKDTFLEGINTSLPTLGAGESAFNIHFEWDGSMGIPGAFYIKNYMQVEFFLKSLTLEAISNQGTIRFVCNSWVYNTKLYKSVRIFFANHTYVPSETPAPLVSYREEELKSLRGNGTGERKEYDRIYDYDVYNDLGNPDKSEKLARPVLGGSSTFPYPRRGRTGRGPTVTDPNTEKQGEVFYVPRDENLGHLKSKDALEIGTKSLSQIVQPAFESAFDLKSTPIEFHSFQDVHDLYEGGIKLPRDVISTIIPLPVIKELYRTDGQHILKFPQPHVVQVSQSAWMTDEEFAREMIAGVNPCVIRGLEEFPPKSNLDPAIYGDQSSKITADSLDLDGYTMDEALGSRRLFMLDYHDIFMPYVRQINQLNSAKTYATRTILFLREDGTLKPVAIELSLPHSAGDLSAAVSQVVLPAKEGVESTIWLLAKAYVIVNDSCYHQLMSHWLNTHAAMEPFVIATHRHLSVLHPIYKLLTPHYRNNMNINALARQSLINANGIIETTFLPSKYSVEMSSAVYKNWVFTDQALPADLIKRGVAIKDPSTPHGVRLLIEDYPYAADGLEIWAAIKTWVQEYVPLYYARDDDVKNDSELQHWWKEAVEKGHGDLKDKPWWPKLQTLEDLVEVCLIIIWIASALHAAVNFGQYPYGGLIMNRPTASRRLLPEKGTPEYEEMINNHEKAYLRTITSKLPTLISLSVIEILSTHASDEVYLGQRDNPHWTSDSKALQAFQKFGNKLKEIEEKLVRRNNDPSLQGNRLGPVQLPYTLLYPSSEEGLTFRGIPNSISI
Experimental: The compounds tested were dissolved in DMSO and preincubated for 4 min at 28 °C in the presence of 753 U/mL 5-soybean lipoxygenase (5-LOX). The enzyme reaction was triggered by addition of a final concentration of 0.1 mM sodium linoleate. The conversion of sodium linoleate 13-hydrouperoxylinoleic acid was measured at 234 nm. Absorbance was measured at time 0 and 3 min.

[2] = at 200 μM, 0.1 μM arachidonic acid

| Compound | inhibition in vivo at 10 µmol/kg [1] [%] | inhibition at 200 µM (human recombinant COX-2; [2]) [%] | inhibition at 200 µM (ovine COX-1; [2]) [%] | LOX (%) inhibition (soybean lipoxygenase) [%] | also measured |
| --- | --- | --- | --- | --- | --- |
| O=c1/c(=C/c2ccccc2Cl)sc2nc(C34CC5CC(CC(C5)C3)C4)nn12 [Compound 20] | 40 to 49 | – | – | – | – |
| O=c1/c(=C/c2ccc([N+](=O)[O-])cc2)sc2nc(C34CC5CC(CC(C5)C3)C4)nn12 [Compound 14] | 40 to 49 | – | – | – | – |
| COc1cc(/C=c2\sc3nc(C45CC6CC(CC(C6)C4)C5)nn3c2=O)ccc1O [Compound 6] | 40 to 49 | 66 | 26.2 | 6.67 | IC50 (human recombinant COX-2): > 50 µM |
| COc1ccc2cc([C@H](C)C(=O)O)ccc2c1 [Naproxen, reference compound] | – | – | – | – | inhibition at 200 µM (human recombinant COX-2): 65%; inhibition at 200 µM (ovine COX-1): 60% |
| COc1cccc(/C=c2\sc3nc(C45CC6CC(CC(C6)C4)C5)nn3c2=O)c1O [Compound 5] | 51 to 67 | – | – | – | increased anti-inflammatory activity compared to indomethacin ([1]; carrageenin paw edema, relative to indomethacin): 23% |
| O=c1/c(=C/c2cccc(Br)c2)sc2nc(C34CC5CC(CC(C5)C3)C4)nn12 [Compound 18] | 51 to 67 | 37 | 0 | 31.43 | – |
| COc1cc(/C=c2\sc3nc(C45CC6CC(CC(C6)C4)C5)nn3c2=O)cc(OC)c1OC [Compound 10] | 40 to 49 | – | – | – | – |
| O=c1/c(=C/c2ccc(O)cc2O)sc2nc(C34CC5CC(CC(C5)C3)C4)nn12 [Compound 4] | 40 to 49 | – | – | – | – |
| COc1ccc(/C=c2\sc3nc(C45CC6CC(CC(C6)C4)C5)nn3c2=O)cc1OC [Compound 9] | 40 to 49 | – | – | – | – |
| O=c1/c(=C/c2ccc(Br)cc2)sc2nc(C34CC5CC(CC(C5)C3)C4)nn12 [Compound 19] | 51 to 67 | 36 | 16 | 8.07 | – |
| O=c1/c(=C/c2ccc(F)cc2)sc2nc(C34CC5CC(CC(C5)C3)C4)nn12 [Compound 16] | 51 to 67 | 0 | 19 | 16.13 | – |
| O=c1/c(=C/c2ccc(O)cc2)sc2nc(C34CC5CC(CC(C5)C3)C4)nn12 [Compound 3] | 37 | 25 | 93 | 28.58 | COX-1 IC50 fold lower than that of naproxen (ovine COX-1): 30 fold; IC50 (ovine COX-1): 1280 nM |
| O=c1/c(=C/c2cccc(O)c2)sc2nc(C34CC5CC(CC(C5)C3)C4)nn12 [Compound 2] | 36 | 64 | 18 | 5.82 | IC50 (human recombinant COX-2): > 50 µM |
